Test: Tissue distribution study by measurement of radioactivity across whole-body sections
Assay type: in vivo, male Sprague-Dawley rats
Details: for radioactivity bound by the kidney (elimination organ): first minutes following the injection; for tissue distribution of radioactivity: target organs/tissues: labelled molecule, rat whole-body sections
Protocol: Pharmacokinetic Study: Tissue Distribution Study
This study was carried out with molecules labelled with ^14C. The tissue distribution study was carried out by direct measurement of the radioactivity across whole-body sections in accordance with the following method: male Sprague-Dawley rats were administered intravenously or orally with a dose of the labelled molecule. Then, at times ranging from 5 minutes to 24 hours after the administration, the animals were sacrificed by ether inhalation and frozen in liquid nitrogen.
Sections were then prepared using a cryomicrotome and, after desiccation, the distribution of radioactivity was measured using an image analyser.

SMILES	radioactivity bound by the kidney (elimination organ)	tissue distribution of radioactivity: target organs/tissues (after injection)	affinity for cartilage (administration of the labelled molecule by the oral route)	time of maximum binding to cartilage (after injection) [min]	affinity of cartilage versus surrounding tissues (after injection of labelled molecule)
C[N+](C)(C)CC(=O)N[C@H]1C(O)O[C@H](CO)[C@@H](O)[C@@H]1O.[Cl-] (stereo partly drawn) [Example 4, 2-(N,N,N-trimethylammonioacetamido)-2-deoxy-α,β-D-glucopyranose chloride]	binds significant amounts of radioactivity	cartilage, and to a lesser degree skin, are the only targets			
O=C(C[n+]1ccccc1)N[C@H]1C(O)O[C@H](CO)[C@@H](O)[C@@H]1O.[Cl-] (stereo partly drawn) [Example 5, 2-(Pyridinioacetamido)-2-deoxy-α,β-D-glucopyranose chloride]	binds significant amounts of radioactivity	cartilage, and to a lesser degree skin, are the only targets			
CN1C(C(=O)NCCC[N+](C)(C)C)=C(O)c2ccccc2S1(=O)=O.[I-] [Example 6, {3-[(4-Hydroxy-2-methyl-1,1-dioxide-2H-1,2-benzothiazin-3-yl)-carboxamido]propyl}trimethylammonium iodide]			very high affinity for cartilage	5	cartilage exhibits a far greater affinity than the surrounding tissues
N[C@H]1C(O)O[C@H](CO)[C@@H](O)[C@@H]1O (some centres unmarked) [glucosamine, reference compound]		the liver is the main target organ			

— patent publication US7008613B2, “Quaternary ammonium compounds” (Les Laboratoires Servier, priority 1999, dated 2006)
